Test results published in patent US6586475B1, “β-amyloid protein production/secretion inhibitors” (Takeda Chemical Industries, Ltd., priority 1998, dated 2003).

Legend:
amyloid-β protein Aβ1-42 = assay: Inhibition of production and/or secretion of Aβ1-42 in IMR-32 cells (EIA of supernatant); format: cell-based; conditions: test compound 10 μM; human neuroblastoma IMR-32 cells, 24 hours; percentage relative to the control
Protocol: (§1) Compounds of the present invention were tested for an inhibitory activity of the production and/or secretion of amyloid-β protein (references: Science, 264, 1336 (1994) and Biochemistry, 34, 10272 (1995)).
(§2) Human neuroblastoma IMR-32 cells: purchased from American Type Culture Center.
(§3) Standard Aβ1-40 and Aβ1-42: purchased from Bachem Co.
(§4) IMR-32 cells were cultivated in a flask (Falcon, 750 ml) containing 10% FCS/DMEM medium, in an atmosphere of 10% CO2/90% air, at 37° C. to be in confluence. The cultured cells were seeded into a 48-well plate in a density of 2.5×10^5 cells/well, and incubated therein for 3 days under the same conditions as above. Then, the culture medium was removed through suction. […]
(§5) BAN-50 antibody or BNT-77 antibody was used as the primary antibody. […] To determined the Aβ1-42, BC-05 was used as the secondary antibody. […]
(§6) The plate was washed three times with PBS, and 100 μl of an HRP-labeled secondary antibody (BA-27 antibody or BC-o5 antibody labeled with HRP: horseradis peroxidase) as dissolved in a buffer for secondary reaction (20 mM phosphate buffer, pH 7.0; 400 mM NaCl; 2 mM EDTA; 1% BSA) was added thereto. […] Then, using a plate reader (MTP-32 Microplate Reader, by Corona Co.), the sample on the plate was subjected to calorimetric determination (at 450 nm). […]

amyloid-β protein Aβ1-40 = assay: Inhibition of production and/or secretion of Aβ1-40 in IMR-32 cells (EIA of supernatant); format: cell-based; conditions: test compound 10 μM; human neuroblastoma IMR-32 cells, 24 hours; percentage relative to the control
Protocol: as §1, §2, §3, §4, §5, §6

Penetration in brain = conditions: in vivo

| melting point | SMILES | further results |
| --- | --- | --- |
| 108 to 110 °C | CCCN(CCC)CCc1cccc(OCc2ccc(-c3ccccc3)cc2)c1.Cl | – |
| 149 to 150 °C | CCCN(CCC)CCc1ccc(OCc2ccc(-c3ccccc3)cc2)cc1.Cl | – |
| 241 to 245 °C (dec.) | O=C(NCCN1CCCC1)c1ccc(NC(=O)c2ccc(-c3ccccc3)cc2)cc1 [Example 27] | – |
| 247 to 252 °C (dec.) | O=C(NCCN1CCCCC1)c1ccc(NC(=O)c2ccc(-c3ccccc3)cc2)cc1 [Example 26, N-[4-{[2-(Piperidinoethyl)amino]carbonyl}phenyl](4-biphenylyl)carboxamide] | – |
| 113 to 115 °C | CCCN(CCC)CCc1ccc(OCc2ccc3ccccc3c2)cc1.Cl | – |

The remaining lines, values behind:

| SMILES | melting point | further results |
| --- | --- | --- |
| CCCN(CCC)CCc1cccc(OCc2ccc(Cl)cc2Cl)c1.Cl | 76 to 78 °C | – |
| O=C(NCCN1CCCCC1)c1ccc(OCc2ccc(-c3ccccc3)cc2)cc1 [Example 8, 4-(4-Biphenylylmethoxy)-N-(2-piperidinoethyl)benzamide] | – | Aβ1-42 (%) (amyloid-β protein Aβ1-42): 63%; Aβ1-40 (%) (amyloid-β protein Aβ1-40): 39%; penetration in brain (Penetration in brain): excellent penetration in brain |
| CCCN(CCC)CCc1cccc(OCc2cccc3ccccc23)c1.Cl | 140 to 142 °C | – |
| CCCN(CCC)CCc1ccccc1OCc1ccc2ccccc2c1.Cl | 146 to 147 °C | – |
| CCCN(CCC)CCc1ccc(OCc2ccc(Cl)cc2Cl)cc1.Cl | 122 to 123 °C | – |
| CCCN(CCC)CCc1cccc(OCc2ccc3ccccc3c2)c1.Cl | 115 to 116 °C | – |
